From patent US5962472A, “Use of 4-phenyl-3,6-dihydro-2H-pyridyl derivatives” (Hoffmann-La Roche Inc., priority 1996, dated 1999)
Counter-ions that a name gives are not always drawn. Like-named read-outs stand apart in the source and are kept apart here.

Tests used:
[1] = target: NMDA receptor (3H-MK801 binding, high and low affinity binding sites); assay: 3H-MK801 (Dizocilpine) binding in vitro, rat whole brain membranes; details: 5 nM 3H-MK-801, 2 hours, room temperature
Procedure: 3H-MK801 (Dizocilpine) binding in vitro
The whole brain from 150-200 g male rats, without cerebellum and without medulla oblongata was dissected on ice. The tissue was then homogenized with an Ultra-Turrax maximum speed during 30 seconds at 4° C. in 50 volumes of cold Tris HCl 50 mM, EDTA disodium 10 mM, pH=7.4 buffer (wet weight/v). The homogenate was centrifuged at 48'000 x g (20'000 rpm, SS34, Sorvall RC5C) for 10 minutes. The pellet was rehomogenized with the same volume of buffer and the homogenate incubated at 37° C. for 10 minutes. After centrifugation as above, the pellet was rehomogenized with the same volume of buffer and frozen at -80° C. in 35 ml fractions for at least 16 hours and not more than 2 weeks.
For the binding experiment, the homogenate was centrifuged as above and the pellet was washed 3 times by homogenization in 25 volumes of cold Tris HCl 5mM, pH=7.4 buffer (Ultra-Turrax, maximum speed, 30 seconds) and centrifugation as above. The final pellet was rehomogenized in 25 volumes of buffer (original wet weight) and used as such in the assay. The final concentration of membrane in the assay was 20 mg/ml (wet weight).
The incubation was performed in the presence of 1 nM glutamate, glycine and spermidine. MK-801, (+)-[3-3H(N)], NEN (NET-972) 20Ci/mmol, was used at 5 nM final concentration. Non specific binding was determined in presence of 10ONM 1-[1-(2-Thienyl)cyclohexyl]piperidine (TCP). After 2 hours of incubation at room temperature, the suspension was filtered (Whatmann GF/B, soaked in 0.1% polyethylenimine for 2 hours) and washed 5 times with 3 ml of cold Tris HCl 5mM, pH=7.4 buffer. The air-dried filters were counted with 10 ml of Ultima-gold (Packard) in a Tri-Carb 2500 TR scintillation counter after agitation.
The radioactive decays per minute (DPM) were transformed in % of specific binding and these values were treated by a non linear regression calculation program (BINDING, H. Affolter, Switzerland) which provided the IC50 values for the low and high affinity binding sites (=concentrations producing half maximal inhibition at the respective sites). Each experiment was repeated at least three times and the final IC50 values were calculated as the mean +/-standard deviation of the individual experiments.
Reference: R. W. Ransom and N. L. Stec. Journal of Neurochemistry 51, 830-836, 1988.

NMDAR1C--NMDAR2B = target: T1, NMDAR1C--NMDAR2B (Rattus norvegicus, UniProt P35439+Q00960); assay: Electrophysiology on recombinant NMDA receptors NMDAR1C-NMDAR2B expressed in Xenopus oocytes; format: cell-based; details: -80 mV, 15 μM Asp plus 0.2 μM Gly, read-out: Electrophysiology IC50 NMDAR 1C u. 2B
T1 construct: expressed in transfected cells; host or cells: Xenopus laevis oocytes, mRNA injected 1:1
T1 sequence (Q00960 27-1482, other chains not shown): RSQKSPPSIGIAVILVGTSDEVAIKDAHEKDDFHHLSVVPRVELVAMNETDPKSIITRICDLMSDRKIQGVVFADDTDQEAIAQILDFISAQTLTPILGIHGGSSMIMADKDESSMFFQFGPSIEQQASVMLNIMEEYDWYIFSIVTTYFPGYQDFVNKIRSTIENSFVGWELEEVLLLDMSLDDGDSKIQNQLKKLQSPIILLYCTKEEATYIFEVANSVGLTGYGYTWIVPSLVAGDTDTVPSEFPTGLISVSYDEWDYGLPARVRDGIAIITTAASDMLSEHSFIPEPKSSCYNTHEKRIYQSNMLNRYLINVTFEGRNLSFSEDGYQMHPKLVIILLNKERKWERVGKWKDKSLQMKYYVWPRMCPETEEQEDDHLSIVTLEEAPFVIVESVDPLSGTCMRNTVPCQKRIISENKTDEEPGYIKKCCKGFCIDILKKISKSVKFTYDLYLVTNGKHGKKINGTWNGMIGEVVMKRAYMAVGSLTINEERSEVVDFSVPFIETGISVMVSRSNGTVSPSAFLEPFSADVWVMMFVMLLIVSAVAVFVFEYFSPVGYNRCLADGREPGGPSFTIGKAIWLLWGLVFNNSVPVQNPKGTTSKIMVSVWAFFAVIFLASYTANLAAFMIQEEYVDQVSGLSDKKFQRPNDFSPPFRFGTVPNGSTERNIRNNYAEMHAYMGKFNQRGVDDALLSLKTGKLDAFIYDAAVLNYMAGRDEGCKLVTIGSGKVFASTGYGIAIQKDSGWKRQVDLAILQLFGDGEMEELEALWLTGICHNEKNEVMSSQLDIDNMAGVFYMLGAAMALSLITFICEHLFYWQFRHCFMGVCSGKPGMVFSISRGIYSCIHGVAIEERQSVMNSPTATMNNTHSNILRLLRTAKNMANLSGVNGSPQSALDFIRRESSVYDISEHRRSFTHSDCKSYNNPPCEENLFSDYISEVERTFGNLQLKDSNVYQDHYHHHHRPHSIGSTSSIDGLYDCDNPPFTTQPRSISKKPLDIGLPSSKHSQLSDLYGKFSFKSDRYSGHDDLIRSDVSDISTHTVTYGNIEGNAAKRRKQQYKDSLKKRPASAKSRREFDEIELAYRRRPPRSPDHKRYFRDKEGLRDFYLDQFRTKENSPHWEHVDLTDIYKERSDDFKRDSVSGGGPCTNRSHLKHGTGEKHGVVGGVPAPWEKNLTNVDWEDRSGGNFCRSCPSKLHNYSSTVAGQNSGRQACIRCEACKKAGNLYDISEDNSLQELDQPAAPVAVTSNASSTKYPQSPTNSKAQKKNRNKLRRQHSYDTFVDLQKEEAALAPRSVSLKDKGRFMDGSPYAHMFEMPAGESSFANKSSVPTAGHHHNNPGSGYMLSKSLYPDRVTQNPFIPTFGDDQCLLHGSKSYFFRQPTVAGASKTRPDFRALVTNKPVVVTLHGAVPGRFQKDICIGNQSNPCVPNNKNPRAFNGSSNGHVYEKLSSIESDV
Excerpt: (§1) Electrophysiology on recombinant NMDA receptors
(§2) cDNA clones coding for the subunits NMDAR1C and NMDAR2A of the NMDA receptor (see Hollmann and Heinemann, 1994, Annu. Rev. Neurosci. 17:31 for nomenclature of NMDA receptor subunits) were isolated from a rat brain λgt11 cDNA library as published elsewhere (Sigel et al., 1994, J. Biol. Chem. 269:8204). The clone for the subunit NMDAR2B of the rat brain NMDA receptor was obtained from S. Nakanishi (Kyoto, Japan). The cDNAs were transcribed, capped and poly(A^+)-tailed as described previously (Malherbe et al., 1990, Mol. Brain Res. 8: 199). Oocytes of South African frogs (Xenopus laevis) were used for expressing either a combination of the NMDAR1C and NMDAR2A subunits or the NMDAR1C and NMDAR2B subunits. Approximately 3 fmol of a 1:1 mixture of the respective mRNA species were injected into every oocyte. Four to five days later the ion current through the NMDA receptor channels was measured in voltage clamp experiments (see Methfessel et al., 1986, Pfliigers Arch. 407:577 for the methods of oocyte expression and voltage-clamping). The membrane potential was clamped to -80 mV and the receptors were activated by applying a modified Ringer's solution containing the NMDA-receptor agonists L-asparatate (Asp) and glycine (Gly). Different agonist concentrations were chosen for either subunit combination to account for the different agonist sensitivities of the two types of receptors (70 μM Asp plus 2.5 μM Gly for NMDARlC--NMDAR2A and 15 μM Asp plus 0.2 μM Gly for NMDAR1C--NMDAR2B). The agonists were applied for 15 s intervals once every 2.5 min by rapid superfusion of the oocyte with agonist containing solution and the amplitude of the agonist-evoked current was measured immediately before the end of each application. After a series of initial control applications, increasing concentrations of the antagonist to be tested were added to both, the basal Ringer's and the agonist containing solution. […] Figures for the IC50 in all other cases are arithmetic mean values of individual IC50 s determined by the logistic curve fits.

NMDAR1C--NMDAR2A = target: T2, NMDAR1C--NMDAR2A (Rattus norvegicus, UniProt P35439+Q00959); assay: Electrophysiology on recombinant NMDA receptors NMDAR1C-NMDAR2A expressed in Xenopus oocytes; format: cell-based; details: -80 mV, 70 μM Asp plus 2.5 μM Gly, > = highest tested concentration (solubility limit), read-out: Electrophysiology IC50 NMDAR 1C u. 2A
T2 construct: expressed in transfected cells; host or cells: Xenopus laevis oocytes, mRNA injected 1:1
T2 sequence (Q00959 23-1464, other chains not shown): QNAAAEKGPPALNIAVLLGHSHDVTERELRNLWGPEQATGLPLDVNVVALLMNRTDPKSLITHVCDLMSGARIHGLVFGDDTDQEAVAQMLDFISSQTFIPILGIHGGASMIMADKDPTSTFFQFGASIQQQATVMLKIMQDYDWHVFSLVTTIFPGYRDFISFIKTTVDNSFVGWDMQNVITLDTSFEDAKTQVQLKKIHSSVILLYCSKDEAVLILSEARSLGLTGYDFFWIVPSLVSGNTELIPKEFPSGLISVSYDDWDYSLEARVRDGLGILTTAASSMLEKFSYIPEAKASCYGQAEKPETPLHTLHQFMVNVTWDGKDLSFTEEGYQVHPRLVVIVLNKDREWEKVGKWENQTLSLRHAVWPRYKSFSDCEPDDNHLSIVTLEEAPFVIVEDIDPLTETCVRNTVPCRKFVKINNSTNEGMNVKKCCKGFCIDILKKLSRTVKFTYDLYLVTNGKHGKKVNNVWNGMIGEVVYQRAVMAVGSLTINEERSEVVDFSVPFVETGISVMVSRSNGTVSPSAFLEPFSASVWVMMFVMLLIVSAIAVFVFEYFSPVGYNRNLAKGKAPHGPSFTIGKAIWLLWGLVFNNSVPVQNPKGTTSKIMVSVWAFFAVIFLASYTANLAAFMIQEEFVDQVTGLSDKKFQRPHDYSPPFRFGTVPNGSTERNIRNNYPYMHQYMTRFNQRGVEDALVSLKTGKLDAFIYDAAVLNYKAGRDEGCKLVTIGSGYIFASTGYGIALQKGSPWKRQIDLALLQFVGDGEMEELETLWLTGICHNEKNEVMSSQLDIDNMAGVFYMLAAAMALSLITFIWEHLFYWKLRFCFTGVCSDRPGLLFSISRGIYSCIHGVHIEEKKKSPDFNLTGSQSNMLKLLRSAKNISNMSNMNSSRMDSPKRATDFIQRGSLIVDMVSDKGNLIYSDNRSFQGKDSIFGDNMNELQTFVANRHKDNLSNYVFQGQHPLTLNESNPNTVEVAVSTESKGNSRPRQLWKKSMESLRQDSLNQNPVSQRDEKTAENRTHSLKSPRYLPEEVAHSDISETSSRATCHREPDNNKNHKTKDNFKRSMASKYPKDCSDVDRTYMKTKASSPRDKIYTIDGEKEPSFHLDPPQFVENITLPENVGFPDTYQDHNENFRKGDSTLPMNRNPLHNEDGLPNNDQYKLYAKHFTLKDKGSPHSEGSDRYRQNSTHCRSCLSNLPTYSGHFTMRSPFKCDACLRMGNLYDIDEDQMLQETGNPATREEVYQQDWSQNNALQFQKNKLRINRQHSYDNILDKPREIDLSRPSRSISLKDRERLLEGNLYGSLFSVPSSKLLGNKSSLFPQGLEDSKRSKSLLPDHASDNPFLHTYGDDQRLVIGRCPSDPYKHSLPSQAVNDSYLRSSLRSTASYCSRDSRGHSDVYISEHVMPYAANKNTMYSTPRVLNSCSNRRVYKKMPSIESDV
Excerpt: as §1, §2

[2] = high affinity binding site, read-out: 3H-MK801 IC50 high
[3] = low affinity binding site, read-out: 3H-MK801 IC50 low

| SMILES | IC50 [1, 2] [µM] | IC50 [1, 3] [µM] | IC50 (NMDAR1C--NMDAR2B) [µM] | IC50 (NMDAR1C--NMDAR2A) [µM] |
| --- | --- | --- | --- | --- |
| OC(COc1ccc2c(c1)CCC2)CN1CC=C(c2ccc(F)cc2)CC1 (stereo not drawn) [compound N] | 1.96 | 258 |  |  |
| CC(=O)c1ccc(OCCCN2CC=C(c3ccccc3)CC2)cc1 [O] | 7.5 | 298 |  |  |
| CS(=O)(=O)Nc1ccc(OCCCN2CC=C(c3ccc(F)cc3)CC2)cc1 [B, N-[4-[3-[4-(4-Fluoro-phenyl)-3,6-dihydro-2H-pyridin-1-yl]-propoxy]-phenyl]-methanesulfonamide hydrochloride (1:1)] | 0.02 | 75 |  |  |
| CC(=O)Nc1ccc(OCC(O)CN2CC=C(c3ccccc3)CC2)cc1 (stereo not drawn) [I] | 0.41 | 110 |  |  |
| NC(=O)Nc1ccc(OCC(O)CN2CC=C(c3ccc(F)cc3)CC2)cc1 (stereo not drawn) [A, [4-[3-[4-(4-Fluoro-phenyl)-3,6-dihydro-2H-pyridin-1-yl]-2-hydroxy-propoxy]-phenyl]-urea] | 0.02 | 55 |  |  |
| CS(=O)(=O)Nc1ccc(OCC(O)CN2CC=C(c3ccc(F)cc3)CC2)cc1 (stereo not drawn) [C, N-[4-[3-[4-(4-Fluoro-phenyl)-3,6-dihydro-2H-pyridin-1-yl]-2-hydroxy-propoxy]-phenyl]-methanesulfonamide] | 0.02 | 69 |  |  |
| CCC(=O)Nc1ccc(OCCCN2CC=C(c3ccc(F)cc3)CC2)cc1 [L] | 1 | 110 |  |  |
| OC(COc1ccccc1)CN1CC=C(c2ccccc2)CC1 (stereo not drawn) [M] | 1.75 | 102 |  |  |
| CS(=O)(=O)Nc1ccc(OCCN2CC=C(c3ccc(F)cc3)CC2)cc1 [G, N-[4-[2-[4-(4-Fluoro-phenyl)-3,6-dihydro-2H-pyridin-1-yl]-ethoxy]-phenyl]-methanesulfonamide] | 0.236 | 24 | 0.8 | > 30 |
| Nc1ccc(OCCCN2CC=C(c3ccc(F)cc3)CC2)cc1 [J] | 0.78 | 44 |  |  |
| NC(=O)c1ccc(OCC(O)CN2CC=C(c3ccc(F)cc3)CC2)cc1 (stereo not drawn) [H] | 0.33 | 40 | 0.71 | > 30 |
| CC(=O)Nc1ccc(OCCCN2CC=C(c3ccc(Cl)cc3)CC2)cc1 [E, N-[4-[3-[4-(4-chloro-phenyl)-3,6-dihydro-2H-pyridin-1-yl]-propoxy]-phenyl]-acetamide] | 0.2 | 88 |  |  |
| COc1ccc(C2=CCN(CCCOc3ccc(NC(C)=O)cc3)CC2)cc1 [K] | 0.91 | 76 |  |  |
| CC(=O)Nc1ccc(OCCCN2CC=C(c3ccc(F)cc3)CC2)cc1 [F] | 0.2 | 85 |  |  |
| CCOC(=O)Nc1ccc(OCC(O)CN2CC=C(c3ccc(F)cc3)CC2)cc1 (stereo not drawn) [D, [4-[3-[4-(4-Fluoro-phenyl)-3,6-dihydro-2H-pyridin-1-yl]-2-hydroxy-propoxy]-phenyl]-carbamic acid ethyl ester] | 0.136 | 320 | 0.63 | > 20 |
